Key:
Format in all cases: in vivo
Kochia (Kochia scoparia) [1] = assay: Test A preemergence; settings: Preemergence
Excerpt: (§1) Seeds of plant species selected from barnyardgrass (Echinochloa crus-galli), Kochia (Kochia scoparia), ragweed (common ragweed, Ambrosia elatior), ryegrass, Italian (Italian ryegrass, Lolium multiflorum), crabgrass, large (Digitaria sanguinalis), giant foxtail (Setaria faberii), green foxtail (Setaria viridis), morningglory (Ipomoea spp.), pigweed (Amaranthus retroflexus), velvetleaf (Abutilon theophrasti), wheat (Triticum aestivum), and corn (Zea mays) were planted into a blend of loam soil and sand and treated preemergence with a directed soil spray using test chemicals formulated in anon-phytotoxic solvent mixture which included a surfactant.
(§2) At the same time, plants selected from these crop and weed species and also blackgrass (Alopecurus myosuroides), and Galium (catchweed bedstraw, Galium aparine) were planted in pots containing the same blend of loam soil and sand and treated with postemergence applications of test chemicals formulated in the same manner. Plants ranged in height from 2 to 10 cm and were in the one- to two-leaf stage for the postemergence treatment. Treated plants and untreated controls were maintained in a greenhouse for approximately 10 d, after which time all treated plants were compared to untreated controls and visually evaluated for injury. Plant response ratings, summarized in Table A, are based on a 0 to 100 scale where 0 is no effect and 100 is complete control. A dash (-) response means no test result.

[2] = tested on: barnyardgrass (Echinochloa crus-galli); assay: Test A preemergence; settings: Preemergence
Excerpt: as §1, §2

[3] = tested on: giant foxtail (Setaria faberii); assay: Test A preemergence; settings: Preemergence
Excerpt: as §1, §2

[4] = tested on: pigweed (Amaranthus retroflexus); assay: Test A preemergence; settings: Preemergence
Excerpt: as §1, §2

[5] = tested on: ragweed (common ragweed, Ambrosia elatior); assay: Test A preemergence; settings: Preemergence
Excerpt: as §1, §2

[6] = tested on: ryegrass, Italian (Italian ryegrass, Lolium multiflorum); assay: Test A preemergence; settings: Preemergence
Excerpt: as §1, §2

[7] = tested on: Galium (catchweed bedstraw, Galium aparine); assay: Test A postemergence
How it was run: (§3)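 Ratings of 0 (no effect) to 100 (complete control) come from visual comparison with untreated controls roughly 10 d after treatment. Test chemicals, formulated in a non-phytotoxic solvent mixture with surfactant, were applied either as a preemergence directed soil spray on seeded soil or postemergence to one- to two-leaf plants 2 to 10 cm tall.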

Kochia (Kochia scoparia) [8] = assay: Test A postemergence
How it was run: as §3

[9] = tested on: barnyardgrass (Echinochloa crus-galli); assay: Test A postemergence
How it was run: as §3

[10] = tested on: blackgrass (Alopecurus myosuroides); assay: Test A postemergence
How it was run: as §3

corn (Zea mays) = assay: Test A postemergence
How it was run: as §3

[11] = tested on: giant foxtail (Setaria faberii); assay: Test A postemergence
How it was run: as §3

[12] = tested on: pigweed (Amaranthus retroflexus); assay: Test A postemergence
How it was run: as §3

[13] = tested on: ragweed (common ragweed, Ambrosia elatior); assay: Test A postemergence
How it was run: as §3

[14] = tested on: ryegrass, Italian (Italian ryegrass, Lolium multiflorum); assay: Test A postemergence
How it was run: as §3

[15] = tested on: wheat (Triticum aestivum); assay: Test A postemergence
How it was run: as §3

[16] = tested on: barnyardgrass (Echinochloa crus-galli); assay: Test B flooded paddy test; settings: Flood, 250 g ai/ha; 0 to 100 scale where 0 is no effect and 100 is complete control; 13 to 15 d
How it was run: (§4)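 Rating scale 0–100 (visual, vs untreated controls) after a 13–15 d greenhouse period; application to the flood layer, 3 cm above soil and maintained; plants at 2-leaf stage when treated.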

[17] = tested on: ducksalad (Heteranthera limosa); assay: Test B flooded paddy test; settings: Flood, 250 g ai/ha; 0 to 100 scale where 0 is no effect and 100 is complete control; 13 to 15 d
How it was run: as §4

rice (Oryra sativa) = assay: Test B flooded paddy test; settings: Flood, 250 g ai/ha; 0 to 100 scale where 0 is no effect and 100 is complete control; 13 to 15 d
How it was run: as §4

[18] = tested on: sedge, umbrella (small-flower umbrella sedge, Cyperus difformis); assay: Test B flooded paddy test; settings: Flood, 250 g ai/ha; 0 to 100 scale where 0 is no effect and 100 is complete control; 13 to 15 d
How it was run: as §4

[19] = 125 g ai/ha, visual injury after approximately 10 d, 0 to 100 scale where 0 is no effect and 100 is complete control
[20] = 500 g ai/ha, visual injury approx. 10 d
[21] = 125 g ai/ha, postemergence, visual injury rating on 0 to 100 scale (0 no effect, 100 complete control), approx. 10 d
[22] = Postemergence, 500 g ai/ha, 0 to 100 scale where 0 is no effect and 100 is complete control

SMILES: O=C1NCC(c2c(F)cccc2F)C1C(=O)Nc1cccc(F)c1F (racemic) [Compound 516]
- Plant response rating, Kochia (Kochia (Kochia scoparia) [1]; [19]): 0
- Kochia plant response rating (0 to 100 scale, 0 is no effect, 100 is complete control) (Kochia (Kochia scoparia) [1]; [20]): 0
- Plant response rating, Barnyardgrass [2, 19]: 40
- Barnyardgrass plant response rating (0 to 100 scale, 0 is no effect, 100 is complete control) [2, 20]: 80
- Plant response rating, Foxtail, Giant [3, 19]: 70
- Foxtail, Giant plant response rating (0 to 100 scale, 0 is no effect, 100 is complete control) [3, 20]: 90
- Plant response rating, Pigweed [4, 19]: 0
- Pigweed plant response rating (0 to 100 scale, 0 is no effect, 100 is complete control) [4, 20]: 0
- Plant response rating, Ragweed [5, 19]: 0
- Ragweed plant response rating (0 to 100 scale, 0 is no effect, 100 is complete control) [5, 20]: 0
- Plant response rating, Ryegrass, Italian [6, 19]: 0
- Ryegrass, Italian plant response rating (0 to 100 scale, 0 is no effect, 100 is complete control) [6, 20]: 0
- Galium plant response rating [7, 21]: 0
- Plant response rating, Galium [7, 22]: 0
- Kochia plant response rating (Kochia (Kochia scoparia) [8]; [21]): 0
- Plant response rating, Kochia (Kochia (Kochia scoparia) [8]; [22]): 0
- Barnyardgrass plant response rating [9, 21]: 0
- Plant response rating, Barnyardgrass [9, 22]: 70
- Blackgrass plant response rating [10, 21]: 0
- Plant response rating, Blackgrass [10, 22]: 0
- Corn plant response rating (corn (Zea mays); [21]): 0
- Plant response rating, Corn (corn (Zea mays); [22]): 0
- Foxtail, Giant plant response rating [11, 21]: 0
- Plant response rating, Foxtail, Giant [11, 22]: 70
- Pigweed plant response rating [12, 21]: 0
- Plant response rating, Pigweed [12, 22]: 0
- Ragweed plant response rating [13, 21]: 0
- Plant response rating, Ragweed [13, 22]: 0
- Ryegrass, Italian plant response rating [14, 21]: 0
- Plant response rating, Ryegrass, Italian [14, 22]: 0
- Wheat plant response rating [15, 21]: 0
- Plant response rating, Wheat [15, 22]: 0
- Plant response rating, Barnyardgrass [16]: 0
- Plant response rating, Ducksalad [17]: 0
- Plant response rating, Rice (rice (Oryra sativa)): 0
- Plant response rating, Sedge, Umbrella [18]: 0
